Measured values: US9328122B2, “7-substituted Hanfangichin B derivative, and preparation method and use thereof” (HANGZHOU BENSHENG PHARMACEUTICAL CO., LTD., priority 2012, dated 2016)
In brackets after ≈: the same amount, converted by molar mass. Where a name gives a salt, the structure may show the parent alone.

Assays:
[1] = system: Hep G2 transplanted tumor; assay: Transplanted tumor of liver cancer in nude mice; conditions: BS-FC-308 35 mg/kg/time, erlotinib hydrochloride 20 mg/kg/time
Protocol: Liver cancer cell lines: Hep G2 (human liver cancer cell line);
Animal: BALBc nude mice (immunodeficient mice), 8 weeks, female, purchased from Shanghai Laboratory Animal Center of Chinese Academy of Sciences, China.
Under sterile conditions, the Hep G2 cells in the logarithmic growth phase were respectively collected and injected subcutaneously in an amount of 2.3×10^7/0.2 mL/nude mice (cell viability >90%) into the left subaxillary of the nude mice, thus establishing a transplanted tumor model of liver cancer in nude mice. The mice were administered from the second day after inoculation. The experimental group was intragastrically administered with the experimentally designed amount, the negative control group was intragastrically administered with sterile water, and the positive control group was intragastrically administered with erlotinib hydrochloride. Each mouse was intragastrically administered in 0.4 ml each time and 3 times a day, at 8:00, 14:00 and 20:00, with 6-hour intervals. The administrations were successive for 10 days. The day before administration was deemed as Day 0 and the weight and tumor size of the mice were determined every 5 days to produce a dynamic plot on weight and tumor growth (the experimental results are presented as mean±SD). On Day 28, the mice were sacrificed and the tumors were taken out and weighed. The tumor inhibition rate (%) after the effect of the medicament was calculated based on a tumor inhibition rate of the control group being zero.
The experimental data for each group were analyzed by using the One-way ANOVA method in the SPSS 19.0 statistical software and were compared with the control group for significance of difference.

[2] = system: RPMI 8226 (multiple myeloma) cells; assay: MTT cell growth inhibition, multiple myeloma cells; assay type: cell-based, human; conditions: Homo sapiens, RPMI-8226, 72 h
Protocol: Myeloma cell lines: RPMI8226 (multiple myeloma), purchased from Fuxiang Bio-tech Co. Ltd., Shanghai, China.
(§1) 6000 well-growing cells were obtained and inoculated into wells of a 96-well cell culture plate. The culture medium was a RPMI-1640 cell culture medium containing 10% fetal bovine serum. After adding the 7-substituted fangchinoline derivatives of different concentrations the next day and mixing uniformly, the plate was placed in a carbon dioxide cell incubator (5% CO2) at 37° C. and incubated for 72 hours. Then the viable cell concentration was determined by the MTT method.

[3] = system: Jurkat (acute lymphoblastic leukemia) cells; assay: MTT cell growth inhibition, leukemia cells; assay type: cell-based, human; conditions: Homo sapiens, Jurkat, 72 h
Description: (§2) Leukemia cell lines: leukemia cell lines: K562adr (drug-resistant, chronic myeloid leukemia, CML), NB4 (acute promyelocytic leukemia, AML), Kasumi-1 (acute myeloid leukemia M2 type, AML-M2), Jurkat (acute lymphoblastic leukemia, ALL), all of which were donated by Cancer Research Institute of Zhejiang University, China; and H9 (acute lymphoblastic leukemia, ALL), which was purchased from China Center for Type Culture Collection.
(§3) Reagents: The standard sample of fangchinoline (FAN) was purchased from Ci Yuan Biotechnology Co., Ltd., Shaanxi, China; and the 7-substituted fangchinoline derivatives according to the present invention.
as §1, with “well-growing leukemia” for “well-growing”, “incubating” for “incubated”

[4] = system: H9 (acute lymphoblastic leukemia) cells; assay: MTT cell growth inhibition, leukemia cells; assay type: cell-based, human; conditions: Homo sapiens, 72 h
Description: as §2, §3
as §1, with “well-growing leukemia” for “well-growing”, “incubating” for “incubated”

[5] = system: Kasumi-1 (acute myeloid leukemia M2 type) cells; assay: MTT cell growth inhibition, leukemia cells; assay type: cell-based, human; conditions: Homo sapiens, Kasumi 1, 72 h
Description: as §2, §3
as §1, with “well-growing leukemia” for “well-growing”, “incubating” for “incubated”

[6] = system: NB4 (acute promyelocytic leukemia) cells; assay: MTT cell growth inhibition, leukemia cells; assay type: cell-based; conditions: Homo sapiens, 72 h
Description: as §2, §3
as §1, with “well-growing leukemia” for “well-growing”, “incubating” for “incubated”

[7] = system: K562/ADR (K562adr, drug-resistant chronic myeloid leukemia) cells; assay: MTT cell growth inhibition, leukemia cells; assay type: cell-based; conditions: Homo sapiens, K562/Adr, 72 h
Description: as §2, §3
as §1, with “well-growing leukemia” for “well-growing”, “incubating” for “incubated”

[8] = system: SK-OV-3 (ovarian cancer) cells; assay: MTT cell growth inhibition, solid tumor cells; assay type: cell-based, human; conditions: Homo sapiens, SK-OV-3, 72 h
Description: (§4) Hep-2 (laryngeal carcinoma), A549 (human lung cancer), CaES-17 (esophageal cancer cell), PC-3 (prostate cancer), CNE (nasopharyngeal carcinoma cell) and SK-OV-3 (ovarian cancer cell), all of which were purchased from China Center For Type Culture Collection; RKO (human colon adenocarcinoma cell), MGC-803 (human gastric cancer cell), MG-63 (osteosarcoma), and U87-MG (malignant glioma cell), all of which were purchased from Fuxiang Bio-tech Co. Ltd., Shanghai, China; PANC-1 (pancreatic cancer), Becap37 (human breast cancer cell), Hela (human cervical cancer cell) and Hep G2 (human liver cancer cell), all of which were donated by Cancer Research Institute of Zhejiang University, China.
as §1, with “well-growing human solid tumor” for “well-growing”, “DMEM High Glucose” for “a RPMI-1640”, “serum. The plate was placed in a carbon dioxide cell incubator (5% CO2) at 37° C. and incubated for 24 hours.” for “serum.”, “added with” for “adding the”, “concentration” for “concentrations the next day”

[9] = system: CaEs-17 (esophageal cancer) cells; assay: MTT cell growth inhibition, solid tumor cells; assay type: cell-based, human; conditions: Homo sapiens, CaEs17, 72 h
Description: as §4
as §1, with “well-growing human solid tumor” for “well-growing”, “DMEM High Glucose” for “a RPMI-1640”, “serum. The plate was placed in a carbon dioxide cell incubator (5% CO2) at 37° C. and incubated for 24 hours.” for “serum.”, “added with” for “adding the”, “concentration” for “concentrations the next day”

[10] = system: CNE (nasopharyngeal carcinoma) cells; assay: MTT cell growth inhibition, solid tumor cells; assay type: cell-based, human; conditions: Homo sapiens, 72 h
Description: as §4
as §1, with “well-growing human solid tumor” for “well-growing”, “DMEM High Glucose” for “a RPMI-1640”, “serum. The plate was placed in a carbon dioxide cell incubator (5% CO2) at 37° C. and incubated for 24 hours.” for “serum.”, “added with” for “adding the”, “concentration” for “concentrations the next day”

[11] = system: PC-3 (prostate cancer) cells; assay: MTT cell growth inhibition, solid tumor cells; assay type: cell-based, human; conditions: Homo sapiens, 72 h
Description: as §4
as §1, with “well-growing human solid tumor” for “well-growing”, “DMEM High Glucose” for “a RPMI-1640”, “serum. The plate was placed in a carbon dioxide cell incubator (5% CO2) at 37° C. and incubated for 24 hours.” for “serum.”, “added with” for “adding the”, “concentration” for “concentrations the next day”

[12] = system: PANC-1 (pancreatic cancer) cells; assay: MTT cell growth inhibition, solid tumor cells; assay type: cell-based, human; conditions: Homo sapiens, PANC-1, 72 h
Description: as §4
as §1, with “well-growing human solid tumor” for “well-growing”, “DMEM High Glucose” for “a RPMI-1640”, “serum. The plate was placed in a carbon dioxide cell incubator (5% CO2) at 37° C. and incubated for 24 hours.” for “serum.”, “added with” for “adding the”, “concentration” for “concentrations the next day”

[13] = system: human colon cancer cell line LoVo; conditions: LoVo tumor-bearing nude mice, 60 days; cited from earlier work
[14] = system: A549 (human lung cancer) cells; assay: MTT cell growth inhibition, solid tumor cells; assay type: cell-based; conditions: Homo sapiens, A549, 72 h
Description: as §4
as §1, with “well-growing human solid tumor” for “well-growing”, “DMEM High Glucose” for “a RPMI-1640”, “serum. The plate was placed in a carbon dioxide cell incubator (5% CO2) at 37° C. and incubated for 24 hours.” for “serum.”, “added with” for “adding the”, “concentration” for “concentrations the next day”

[15] = system: Becap-37 (human breast cancer) cells; assay: MTT cell growth inhibition, solid tumor cells; assay type: cell-based; conditions: Homo sapiens, 72 h
Description: as §4
as §1, with “well-growing human solid tumor” for “well-growing”, “DMEM High Glucose” for “a RPMI-1640”, “serum. The plate was placed in a carbon dioxide cell incubator (5% CO2) at 37° C. and incubated for 24 hours.” for “serum.”, “added with” for “adding the”, “concentration” for “concentrations the next day”

[16] = system: MG-63 (osteosarcoma) cells; assay: MTT cell growth inhibition, solid tumor cells; assay type: cell-based; conditions: Homo sapiens, MG-63, 72 h
Description: as §4
as §1, with “well-growing human solid tumor” for “well-growing”, “DMEM High Glucose” for “a RPMI-1640”, “serum. The plate was placed in a carbon dioxide cell incubator (5% CO2) at 37° C. and incubated for 24 hours.” for “serum.”, “added with” for “adding the”, “concentration” for “concentrations the next day”

[17] = system: Hep G2 (human liver cancer) cells; assay: MTT cell growth inhibition, solid tumor cells; assay type: cell-based; conditions: Homo sapiens, HepG2, 72 h
Description: as §4
as §1, with “well-growing human solid tumor” for “well-growing”, “DMEM High Glucose” for “a RPMI-1640”, “serum. The plate was placed in a carbon dioxide cell incubator (5% CO2) at 37° C. and incubated for 24 hours.” for “serum.”, “added with” for “adding the”, “concentration” for “concentrations the next day”

[18] = system: Hep-2 (laryngeal carcinoma) cells; assay: MTT cell growth inhibition, solid tumor cells; assay type: cell-based; conditions: Homo sapiens, HEp-2, 72 h
Description: as §4
as §1, with “well-growing human solid tumor” for “well-growing”, “DMEM High Glucose” for “a RPMI-1640”, “serum. The plate was placed in a carbon dioxide cell incubator (5% CO2) at 37° C. and incubated for 24 hours.” for “serum.”, “added with” for “adding the”, “concentration” for “concentrations the next day”

[19] = system: Hela (human cervical cancer) cells; assay: MTT cell growth inhibition, solid tumor cells; assay type: cell-based; conditions: Homo sapiens, HeLa, 72 h
Description: as §4
as §1, with “well-growing human solid tumor” for “well-growing”, “DMEM High Glucose” for “a RPMI-1640”, “serum. The plate was placed in a carbon dioxide cell incubator (5% CO2) at 37° C. and incubated for 24 hours.” for “serum.”, “added with” for “adding the”, “concentration” for “concentrations the next day”

[20] = system: U87-MG (malignant glioma) cells; assay: MTT cell growth inhibition, solid tumor cells; assay type: cell-based; conditions: Homo sapiens, U-87 MG, 72 h
Description: as §4
as §1, with “well-growing human solid tumor” for “well-growing”, “DMEM High Glucose” for “a RPMI-1640”, “serum. The plate was placed in a carbon dioxide cell incubator (5% CO2) at 37° C. and incubated for 24 hours.” for “serum.”, “added with” for “adding the”, “concentration” for “concentrations the next day”

[21] = system: MGC-803 (human gastric cancer) cells; assay: MTT cell growth inhibition, solid tumor cells; assay type: cell-based; conditions: MGC-803, 72 h
Description: as §4
as §1, with “well-growing human solid tumor” for “well-growing”, “DMEM High Glucose” for “a RPMI-1640”, “serum. The plate was placed in a carbon dioxide cell incubator (5% CO2) at 37° C. and incubated for 24 hours.” for “serum.”, “added with” for “adding the”, “concentration” for “concentrations the next day”

[22] = system: RKO (human colon adenocarcinoma) cells; assay: MTT cell growth inhibition, solid tumor cells; assay type: cell-based; conditions: Homo sapiens, 72 h
Description: as §4
as §1, with “well-growing human solid tumor” for “well-growing”, “DMEM High Glucose” for “a RPMI-1640”, “serum. The plate was placed in a carbon dioxide cell incubator (5% CO2) at 37° C. and incubated for 24 hours.” for “serum.”, “added with” for “adding the”, “concentration” for “concentrations the next day”

Structure (SMILES): C#Cc1cccc(Nc2ncnc3cc(OCCOC)c(OCCOC)cc23)c1 [Erlotinib hydrochloride, reference compound]
- Mass of tumor ([1]; Hep G2 transplanted tumor, Day 28, intragastric 3 times a day for 10 days): 839 ± 270.62 mg
- Tumor Inhibition rate ([1]; Hep G2 transplanted tumor, Day 28, intragastric 3 times a day for 10 days, control = 0): 34.5%
- Body Weight (g) Initial ([1]; Hep G2 tumor nude mice, before administration, intragastric 3 times a day, mean±SD): 21.4 ± 0.26 g
- Body Weight (g) Final ([1]; Hep G2 tumor nude mice, final, intragastric 3 times a day for 10 days, mean±SD): 20.4 ± 1.72 g

Structure (SMILES): COc1ccc2cc1Oc1ccc(cc1)C[C@H]1c3cc(c(OC)cc3CCN1C)Oc1c(O)c(OC)cc3c1[C@H](C2)N(C)CC3 [FAN, Fangchinoline, reference compound]
- IC50 [2]: 0.04 µg/mL (≈ 0.0657 µM)
- IC90 [2]: 0.5 µg/mL (≈ 0.821 µM)
- IC50 [3]: 1.73 µg/mL (≈ 2.84 µM)
- IC90 [3]: 5.25 µg/mL (≈ 8.62 µM)
- IC50 [4]: 2.4 µg/mL (≈ 3.94 µM)
- IC90 [4]: 6.6 µg/mL (≈ 10.8 µM)
- IC50 [5]: 1.11 µg/mL (≈ 1.82 µM)
- IC90 [5]: 4.11 µg/mL (≈ 6.75 µM)
- IC50 [6]: 0.58 µg/mL (≈ 0.953 µM)
- IC90 [6]: 2.59 µg/mL (≈ 4.25 µM)
- IC50 [7]: 0.36 µg/mL (≈ 0.591 µM)
- IC90 [7]: 4.13 µg/mL (≈ 6.78 µM)
- IC50 [8]: 3.61 µg/mL (≈ 5.93 µM)
- IC90 [8]: 14.5 µg/mL (≈ 23.8 µM)
- IC50 [9]: 1.94 µg/mL (≈ 3.19 µM)
- IC90 [9]: 8.98 µg/mL (≈ 14.8 µM)
- IC50 [10]: 2.4 µg/mL (≈ 3.94 µM)
- IC90 [10]: 5.7 µg/mL (≈ 9.36 µM)
- IC50 [11]: 4.08 µg/mL (≈ 6.7 µM)
- IC90 [11]: 7.64 µg/mL (≈ 12.6 µM)
- IC50 [12]: 3.14 µg/mL (≈ 5.16 µM)
- IC90 [12]: 11.6 µg/mL (≈ 19.1 µM)
- adverse reactions during the administration [13]: do not exhibit adverse reactions
- IC50 [14]: 3.26 µg/mL (≈ 5.36 µM)
- IC90 [14]: 9.81 µg/mL (≈ 16.1 µM)
- IC50 [15]: 1.79 µg/mL (≈ 2.94 µM)
- IC90 [15]: 6.2 µg/mL (≈ 10.2 µM)
- IC50 [16]: 1.7 µg/mL (≈ 2.79 µM)
- IC90 [16]: 3.7 µg/mL (≈ 6.08 µM)
- IC50 [17]: 1.81 µg/mL (≈ 2.97 µM)
- IC90 [17]: 5.23 µg/mL (≈ 8.59 µM)
- IC50 [18]: 3.6 µg/mL (≈ 5.91 µM)
- IC90 [18]: 10 µg/mL (≈ 16.5 µM)
- IC50 [19]: 1.96 µg/mL (≈ 3.22 µM)
- IC90 [19]: 6.12 µg/mL (≈ 10.1 µM)
- IC50 [20]: 1.12 µg/mL (≈ 1.84 µM)
- IC90 [20]: 3.79 µg/mL (≈ 6.23 µM)
- IC50 [21]: 1.08 µg/mL (≈ 1.77 µM)
- IC90 [21]: 6.42 µg/mL (≈ 10.5 µM)
- IC50 [22]: 0.92 µg/mL (≈ 1.51 µM)
- IC90 [22]: 3.11 µg/mL (≈ 5.11 µM)
